Experimental data: patent EP2886531B1, “Aspartic acid derivatives” (Merck Patent GmbH, priority 2013, dated 2015)

Key:
[1] = Prolonged DBU treatment of VKDNYI peptide resin (aspartimide formation); format: physicochemical
Protocol: (§1) Automated peptide synthesis, piperidine treatments of the resin samples and final TFA cleavages are performed as described in the protocols of example 4. In addition, 50 mg peptide resin samples are treated with a solution of DBU/piperidine/DMF (1:19:79) over 225 minutes to investigate the aspartimide formation at harsher Fmoc deprotection conditions often used for complete Fmoc removals in aggregation prone sequences.
(§2) The resulting peptide samples are analysied and all relevant impurities identified by UPLC-MS analysis (Xevo Waters Q-TOF-1, lock mass = 556.277 (leu-enkephaline), LC-conditions: CHS 18 1,7 µm (100x2.1 mm) at 40°C; water acetonitrile gradient of 5% to 35 % B over 10 min where buffer A is 0.1 % formic acid in water and buffer B is 0.1 % formic acid in acetonitrile, flow 0.6 ml/min).
In table 3 the amounts of by-products formed after prolonged DBU treatments are summarized for all side-chain protections used in this invention. […] Since the DBU mediated Fmoc removals are much quicker than the piperidine mediated, this experiment again represents a Fmoc SPPS assembly of an 100mer after introducing the aspartic acid residue using exclusively DBU for Fmoc cleavage. Table 3: Results after 110 Fmoc removal cycles using DBU, target peptide = VKDNYI, the aspartimide (Asu) derived by-products are the aspartimide itself and the sum of piperidides

[2] = Prolonged piperidine treatment of VKDNYI peptide resin (aspartimide formation, Asp-Asn motif); format: physicochemical; settings: piperidine
Protocol: as §1, §2
In table 2 the amounts of by-products formed after the prolonged exposure of the peptide resins to piperidine (110 Fmoc removal cycles) are summarized for all side-chain protections used in this invention. […] Table 2: Results after 110 Fmoc removal cycles using piperidine, target peptide = VKDNYI, the aspartimide (Asu) derived by products are the aspartimide itself and the sum of piperidides

[3] = Prolonged treatment of VKDGYI peptide resin with 1 M Oxyma Pure and 20 % piperidine (aspartimide formation); format: physicochemical; settings: VKDGYI
Protocol: [drawing 14] 50 mg samples of the corresponding aspartic acid derivatives of example 4 are treated over 18 hours with a solution of 1 M Oxyma Pure and 20 % piperidine in dimethylformamide. The peptides are cleaved off the resin with 95 % TFA and analysed with HPLC as well as MS to identify all aspartimide related products (conditions see example 4). The results are summarized in table 6: Table 6: Results after 110 Fmoc removal cycles using an acidic modifier in the piperidine mediated Fmoc removal cocktails, target peptide = VKDG YI, the aspartimide derived by-products are the aspartimide itself and the sum of piperidides

[4] = Prolonged piperidine treatment of VKDGYI peptide resin (aspartimide formation, Asp-Gly motif)
[5] = Prolonged piperidine treatment of VKDRYI peptide resin (aspartimide formation, Asp-Arg motif); format: physicochemical
Protocol: (§3) Automated peptide synthesis, piperidine treatments of the resin samples and final TFA cleavages are performed as described in the protocols of example 4. In addition, to evaluate the advantage of the protecting groups used in this invention in heat accelerated SPPS we treat 50 mg peptide resin samples with a solution of 20% piperidine in DMF at 60°C over 200 minutes. Microwave assisted peptide synthesis conditions are often used to shorten peptide synthesis times and increase coupling reaction and Fmoc deprotection.
(§4) In table 4 the amounts of by-products formed after the prolonged exposure of the peptide resins to piperidine (110 Fmoc removal cycles) are summarized for all side-chain protections used in this invention. Table 4: Results after 110 Fmoc removal cycles using piperidine, target peptide sequence = VKDRYI, the aspartimide (Asu) derived by-products are the aspartimide itself and the sum of piperidides

[6] = Prolonged piperidine treatment at 60°C of VKDRYI peptide resin (aspartimide formation); format: physicochemical
Protocol: as §3
The application of microwave heating to SPPS is accelerating coupling and deprotection reactions leading to shorter cycle times, higher repetitive yields, and ultimately purer peptides. On the other hand, microwave energy can also lead to increased levels of aspartimide by-products. To overcome that drawback we evaluated the advantage of the side-chain protections used in this invention by exposing the peptide resins to Fmoc removal cycles at 60 degrees Celsius.
as §4, with “5” for “4”, “at 60 degree Celsius (100” for “(110”, “invention. […]” for “invention.”, “5:” for “4:”, “100” for “110”, “piperidine at 60°C,” for “piperidine,”

[7] = VKDNYI, DBU/piperidine/DMF (1:19:79), 225 minutes
[8] = VKDNYI, 110 Fmoc removal cycles
[9] = VKDGYI, 20 % piperidine in dimethylformamide
[10] = VKDRYI, 110 Fmoc removal cycles
[11] = VKDRYI, 20% piperidine in DMF at 60°C, 200 minutes

CC(C)(C)OC(=O)C[C@H](NC(=O)OCC1c2ccccc2-c2ccccc21)C(=O)O [tBu, Fmoc-Asp(OtBu)-OH, reference compound]
Asu per 2' cycle ([1]; VKDNYI, DBU): 5.2
Half-life in cycles ([1]; VKDNYI, DBU, 2' cycles): 13 cycles
D/L-Asu [%] [1, 7]: 2.6%
piperides [%] [1, 7]: 97.1%
target [%] ([1]; target peptide VKDNYI, DBU/piperidine/DMF (1:19:79) over 225 minutes, 110 Fmoc removal cycles): 0.3%
Asu per 10' cycle ([2]; VKDNYI): 1.6
Half-life in cycles ([2]; VKDNYI): 40 cycles
D/L-Asu [%] [2, 8]: 4.9%
piperidides [%] [2, 8]: 79.0%
target [%] ([2]; target peptide VKDNYI, 110 Fmoc removal cycles): 16.1%
Asu per 10' cycle ([3]; Oxyma Pure +): 0.45
Asu [%] ([3]; Oxyma Pure +, 18 hours): 8.8%
piperidides [%] ([3]; Oxyma Pure +, 18 hours): 30.1%
target [%] ([3]; Oxyma Pure +: 1 M Oxyma Pure and 20 % piperidine in dimethylformamide, 18 hours): 61.1%
Asu per 10' cycle [%] [4, 9]: 2.3%
Half-life in 10' cycles [4, 9]: 30 10' cycles
Asu [%] ([4]; VKDGYI, 20 % piperidine in dimethylformamide, 18 hours, aspartimide): 6.4%
piperidides [%] ([4]; VKDGYI, 20 % piperidine in dimethylformamide, 18 hours, sum of piperidides): 85.6%
Asu [%] ([4]; VKDGYI, Oxyma Pure -): 6.4%
Asu per 10' cycle ([4]; VKDGYI, Oxyma Pure -): 2.3
piperidides [%] ([4]; VKDGYI, Oxyma Pure -): 85.6%
target [%] ([4]; VKDGYI, Oxyma Pure -: 20 % piperidine only, 18 hours (as Table 1)): 8.0%
target [%] ([4]; target peptide VKDGYI, 20 % piperidine in dimethylformamide over 18 hours, 110 Fmoc removal cycles): 8.0%
Asu per 10' cycle ([5]; VKDRYI): 1.3
Half-life in cycles ([5]; VKDRYI): 55 cycles
D/L-Asu [%] [5, 10]: 16.9%
piperidides [%] [5, 10]: 58.4%
target [%] ([5]; target peptide VKDRYI, 110 Fmoc removal cycles): 24.7%
D/L-Asu [%] [6, 11]: 28.7%
piperidides [%] [6, 11]: 41.0%
Asu per 10' cycle ([6]; VKDRYI, piperidine at 60°C): 1.2
Half-life in cycles ([6]; VKDRYI, piperidine at 60°C): 58 cycles
target [%] ([6]; target peptide VKDRYI, 20% piperidine in DMF at 60°C over 200 minutes, 100 Fmoc removal cycles): 30.3%
